The values below come from PubChem BioAssay AID179 (DTP/NCI, 2004).

This assay concerns CEM cells HIV-1 protection, formazan growth assay. Nature of the assay: NCI AIDS Antiviral Assay. The following applies: for IC50: measured here: growth of uninfected CEM cells. The procedure, abridged:
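CEM (human) cells, HIV-1 infected vs uninfected, 5-point dosing, formazan growth read-out. Retest threshold 50% protection.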

Active and inactive are the calls of the source.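 How the source made its calls: active means compounds giving half or more protection of infected cells from virus-caused growth loss, again on retest; inactive means the rest.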

In the case of `CN1C(=O)OC2CC/C=C\CCC2C1c1ccccc1` (configuration not stated), the outcome was inactive. Usually EC50 stands for the concentration needed to bring the measured effect to its halfway point. One may read the IC50 as the concentration that inhibits the measured activity by half. For `Cc1csc(NNC(N)=O)n1`, the EC50 is more than 200 µM and the concentration for half-maximal inhibition (IC50) was more than 200 µM. As to `O=C1c2cc3c(cc2CC1Cc1ccc2c(c1)CCC2)CCC3` (configuration not stated), the EC50 is more than 200 µM and the IC50 amounted to 91.2 µM. `CN1CCN(C)c2nc3ccccc3nc21`: the EC50 is 15.1 µM and the IC50 turned out to be 87.1 µM. Take `COc1ccc(C(O)C/[N+]([O-])=C/c2ncc([N+](=O)[O-])n2C)cc1` (configuration not stated): the result was inactive. Turning to `CC(C)(C)C(=O)OCOP(=O)(OCOC(=O)C(C)(C)C)OCC1CCC(n2ccc(=O)[nH]c2=O)O1` (configuration not stated), the EC50 was 3.39 µM and the IC50 was found to be 72.4 µM. On the same counts, the results for `Cn1c(=O)c2c(nc3n(Cc4ccccc4)c(=O)c(NCCCBr)cn23)n(C)c1=O` are 30.9 µM and 41.7 µM. The corresponding values for `O=C(NNC(=S)S)c1ccncc1` are more than 200 µM and 95.5 µM. The corresponding values for `NC(Cc1ccccc1)C(=O)N[C@H]1c2ccsc2/C(=N/O)[C@H]1O` (some centres not stated) are more than 200 µM and more than 200 µM. For `N#CC1=C(N)OC(c2cccc([N+](=O)[O-])c2)C1(C#N)C#N` (configuration not stated), the EC50 was more than 200 µM and the half-maximal inhibitory concentration (IC50) worked out at 15.5 µM. On the same counts, the results for `CC1(C)CC23C4COC(=O)C2CCC1C3CC4=O` (configuration not stated) are more than 117 µM and 4.07 µM.

With `CC1CCN(Cc2cccnc2)CC1`, the result was inactive. Regarding `Cc1cccc(/C=C2\CCCc3ccccc3C2=O)c1`, the EC50 was more than 200 µM and the IC50 was 11.2 µM. Consider `CC(C)(CN1CCCCC1)C(=O)/C=C/c1c(Cl)cccc1Cl`, for which the EC50 is more than 200 µM and the half-maximal inhibitory concentration (IC50) was determined as 1.86 µM. The corresponding values for `CSc1c(C(=O)Nc2ccc(Cl)cc2)c(N)n(N)c(=O)c1C#N` are more than 200 µM and 40.7 µM.

For the molecule `C=CCCCCCCCCC(=O)NCc1ccncc1`, the EC50 is more than 200 µM and the half-maximal inhibitory concentration (IC50) came out at 97.7 µM. The corresponding values for `COc1ccc(-c2nnc(CCCCCCCCc3nnc(-c4ccc(OC)cc4)o3)o2)cc1` are more than 200 µM and more than 200 µM. On the same counts, the results for `COc1ccc(/C(Cl)=C/c2cc(OC)ccc2OC)cc1` are more than 200 µM and 13.5 µM.

`C[C@@H]1C[C@@H]2C(=O)N(c3ccccc3)C(=O)[C@@H]2c2[nH]c3ccc(Br)cc3c21`: the outcome was inactive.

`Cc1c(Cl)ccc2[s+]snc12`: the result was inactive. `CCOC(=O)C(=Cc1ccc(-c2ccccc2)cc1)C(=O)OCC`: the EC50 was more than 16.2 µM and the IC50 came to 10.5 µM. On the same counts, the results for `CC(C)(C)OC(=O)N1CCc2c(n(C/C=C/c3ccccc3)[nH]c2=O)C1` are more than 200 µM and 19.1 µM. The corresponding values for `CCOC(=O)/C(=C/c1ccc(C(F)(F)F)cc1)N(CC)CC` are more than 158 µM and 64.6 µM. The corresponding values for `COC(=O)[C@@]12CCCC(=O)[C@@H]1[C@H]1CCC[C@H]12` are 112 µM and more than 200 µM. On to `CCOC(=O)c1ccc(N2C(=S)N(C(=O)c3ccccc3)C(=Nc3ccccc3)C2=Nc2ccccc2)cc1`, for which the EC50 is more than 200 µM and the IC50 stood at 2.82 µM. On the same counts, the results for `OC1CSc2nc3ccccc3n2C1` (configuration not stated) are more than 200 µM and more than 200 µM. The corresponding values for `Nc1nc(C=O)nc2c1ncn2C1OC(CO)C(O)C1O` (configuration not stated) are more than 200 µM and 30.9 µM.

With `NNC(=O)c1n[nH]nc1C(=O)NN`, the EC50 is more than 200 µM and the 50% inhibitory concentration (IC50) was more than 200 µM. For `Brc1ccc2c(ccc3nc4nnnn4nc32)c1`, the EC50 is more than 17.4 µM and the 50% inhibitory concentration (IC50) is more than 17.4 µM. `CC(=O)Nc1ccc(NNc2cc(=O)n(C)c(=O)[nH]2)cc1`: the EC50 was more than 200 µM and the IC50 was 2.4 µM. On the same counts, the results for `[O-][n+]1onc2ncccc21` are more than 138 µM and 19.5 µM.
